# Like-named read-outs stand apart in the source and are kept apart here.
# Tests used:
# [1] = tested on: SW620 cells (metastatic derivative of SW480); test: Sulforhodamine B (SRB) cytotoxicity assay, SW620; type: cell-based, human; conditions: for SI (selectivity index): IC50 CHO-K1 / IC50 SW620; for IC50: Homo sapiens, SW-620, SRB, mean ± SE
# Procedure: (§1) To determine the cytotoxic effect of the synthesized hybrids, they were evaluated against SW480 human colon adenocarcinoma cells, its metastatic derivative SW620 and the non-malignant CHO-K1 cell line, through the sulforhodamine B assay. In this experiment, 5-FU was also included as the reference drug, as well as the parental subunits (curcumin and resveratrol) and the equimolar mixture of these. Cytotoxicity was reported as 50% inhibitory concentration (IC50 values).
# (§2) Biological assays were performed using an adenocarcinoma colon cancer cell line (SW480), its metastatic derivative (SW620) and non-malignant cells (CHO-K1). These were obtained from The European Collection of Authenticated Cell Cultures (ECACC, England) and maintained in Dulbecco’s Modified Eagle Medium, supplemented with 10% heat-inactivated (56 °C) horse serum, 1% penicillin/streptomycin and 1% non-essential amino acids (Gibco Invitrogen, Carlsbad, USA). For all experiments, horse serum was reduced to 3%, and the medium was supplemented with […], 5 ng/mL selenium and […] (ITS-defined medium; Gibco, Invitrogen, Carlsbad, CA, USA).
# (§3) Cytotoxicity of the synthesized hybrids, lead and reference compounds was evaluated through Sulforhodamine B (SRB) assay, a colorimetric test that is based on staining of total cellular protein of adherent cells. Cells were seeded to a final density of 20,000 cells/well in 96-well tissue culture plates and incubated at 37 °C in a humidified atmosphere at 5% CO2. All cultures were allowed to grow for 24 h, and afterward they were treated with DMSO (vehicle control 1%) or increasing concentrations (0.01–200 µM) of the synthesized hybrids, as well as curcumin and resveratrol (lead compounds), the equimolar mixture of these and 5-fluorouracil (5-FU; the standard drug). After treatment, cells were fixed with trichloroacetic acid (50% v/v) (MERCK) for a period of 1 h at 4 °C. Cell proteins were determined by staining with 0.4% (w/v) SRB (Sigma-Aldrich, United States), and then they were washed with 1% acetic acid for the removal of unbound SRB and left for air-drying. Protein bound SRB was solubilized in 10 mM Tris-base and the absorbance was measured at 492 nm in a microplate reader (Mindray MR-96A). All experiments were performed at least in triplicate.
# [2] = tested on: SW480 human colon adenocarcinoma cells; test: Sulforhodamine B (SRB) cytotoxicity assay, SW480; type: cell-based; conditions: for SI (selectivity index): IC50 CHO-K1 / IC50 SW480; for IC50: Homo sapiens, SRB, mean ± SE
# Procedure: as §1, §2, §3
# [3] = tested on: non-malignant CHO-K1 cell line; test: Sulforhodamine B (SRB) cytotoxicity assay, non-malignant cells; type: cell-based; conditions: Cricetulus griseus, mean ± SE
# Procedure: as §1, §2, §3
# [4] = tested on: SW620 cell line; test: Antiproliferative activity (SRB, 2-8 days), SW620; type: cell-based, human; conditions: for viability at 10 µM / viability at 160 µM: Homo sapiens, vehicle control = 100%, read-out: Viability (%) ± SE; for viability at 10 µM: SW620, 10 µM; for viability at 160 µM: SW620, 160 µM
# Procedure: With the aim of testing the antiproliferative effect of the most cytotoxic and selective hybrids (3e and 3i for SW480 and 3a, 3e and 3k for SW620), they were analyzed through a longer period. According to the results in comparison with the control, it was observed that the activity was time- and concentration-dependent, as evidenced by the decrease in cell viability in the highest concentrations (Table 2). […] Similar results were presented in a previous investigation by Herrera-R et al. (2018), reporting the antiproliferative effect and morphological changes in SW480 cells after treatment with different hybrids using a stilbene moiety, which highlights the potential of this scaffold in the approach to design molecules with potential activity against CRC.
# Briefly, cells were seeded to a final density of 2500 cells/well in 96-well tissue culture plates and incubated in the same conditions described for cytotoxicity. […] Culture media was replaced every 48 h. After each incubation time, cells were fixed, stained and read as previously described for this technique.
melting point,SMILES,SI (selectivity index) ([1]; 24 h),SI (selectivity index) ([1]; 48 h),SI (selectivity index) ([2]; 24 h),SI (selectivity index) ([2]; 48 h),IC50 ([3]; 24 h),IC50 ([3]; 48 h),"viability at 10 µM ([4]; SW-620, 48 h, day 2)","viability at 160 µM ([4]; SW-620, 48 h, day 2)","viability at 10 µM ([4]; SW-620, 96 h, day 4)","viability at 160 µM ([4]; SW-620, 96 h, day 4)","viability at 10 µM ([4]; SW-620, 144 h, day 6)","viability at 160 µM ([4]; SW-620, 144 h, day 6)","viability at 10 µM ([4]; SW-620, 192 h, day 8)","viability at 160 µM ([4]; SW-620, 192 h, day 8)",IC50 ([1]; 24 h),IC50 ([1]; 48 h),"IC50 ([2]; SW480, 24 h, 24 h)","IC50 ([2]; SW480, 48 h, 48 h)","reduction in viability ([4]; SW620, after two days of treatment, concentrations higher than 10 µM)"
87 to 90 °C,"COc1cc(/C=C/C(=O)c2ccc(/C=C/c3c(OC)cccc3OC)cc2)ccc1O [Hybrid 3g, (E)-1-(4-((E)-2,6-Dimethoxystyryl)phenyl)-3-(4-hydroxy-3-methoxyphenyl)prop-2-en-1-one]",2.82,1.17,11.1,0.83,95 ± 1.67 µM,32.4 ± 5.16 µM,–,–,–,–,–,–,–,–,33.7 ± 4.2 µM,27.6 ± 5.21 µM,8.55 ± 2.47 µM,39.1 ± 5.68 µM,–
49 to 51 °C,"COc1cc(/C=C/c2ccc(C(=O)/C=C/c3ccc(O)c(OC)c3)cc2)cc(OC)c1 [Hybrid 3h, (E)-1-(4-((E)-3,5-Dimethoxystyryl)phenyl)-3-(4-hydroxy-3-methoxyphenyl)prop-2-en-1-one]",1.60,1.08,2.06,0.93,97.4 ± 2.62 µM,23.2 ± 4.07 µM,–,–,–,–,–,–,–,–,61 ± 12.8 µM,21.4 ± 3.29 µM,47.2 ± 8.39 µM,24.9 ± 1.65 µM,–
142 to 146 °C,"COc1cc(/C=C/C(=O)c2ccc(/C=C/c3ccc(O)c(OC)c3)cc2)ccc1O [Hybrid 3j, (E)-3-(4-Hydroxy-3-methoxyphenyl)-1-(4-((E)-4-hydroxy-3-methoxystyryl)phenyl)prop-2-en-1-one]",1.50,0.84,5.28,0.59,42.1 ± 4.85 µM,24.3 ± 5.21 µM,–,–,–,–,–,–,–,–,28.1 ± 4.27 µM,28.8 ± 4.57 µM,7.98 ± 1.53 µM,41.1 ± 7.8 µM,–
74 to 77 °C,"COc1cc(/C=C/C(=O)c2ccc(/C=C/c3cc(OC)c(OC)c(OC)c3)cc2)ccc1O [Hybrid 3k, (E)-3-(4-Hydroxy-3-methoxyphenyl)-1-(4-((E)-3,4,5-trimethoxystyryl)phenyl)prop-2-en-1-one]",3.65,–,0.84,0.34,74.6 ± 4.2 µM,29.4 ± 2.29 µM,56.1 ± 4%,2.4 ± 0.7%,12.1%,0%,1.9 ± 0.8%,0%,0.1 ± 0.1%,0%,20.4 ± 2.43 µM,11.8 ± 1.2 µM,88.5 ± 4.58 µM,85.8 ± 1.27 µM,significant reduction in viability
86 to 88 °C,"COc1cc(/C=C/C(=O)c2ccc(/C=C/c3cc(OC)c(O)c(OC)c3)cc2)ccc1O [Hybrid 3l, (E)-1-(4-((E)-4-Hydroxy-3,5-dimethoxystyryl)phenyl)-3-(4-hydroxy-3-methoxyphenyl)prop-2-en-1-one]",2.63,0.83,1.42,0.48,90 ± 8.55 µM,24.8 ± 5.53 µM,–,–,–,–,–,–,–,–,34.2 ± 5.09 µM,29.8 ± 3.68 µM,63.5 ± 8.16 µM,51.8 ± 5.85 µM,–

# The next lines start with the molecule.
SMILES,melting point,SI (selectivity index) ([1]; 24 h),SI (selectivity index) ([1]; 48 h),SI (selectivity index) ([2]; 24 h),SI (selectivity index) ([2]; 48 h),IC50 ([3]; 24 h),IC50 ([3]; 48 h),"viability at 10 µM ([4]; SW-620, 48 h, day 2)","viability at 160 µM ([4]; SW-620, 48 h, day 2)","viability at 10 µM ([4]; SW-620, 96 h, day 4)","viability at 160 µM ([4]; SW-620, 96 h, day 4)","viability at 10 µM ([4]; SW-620, 144 h, day 6)","viability at 160 µM ([4]; SW-620, 144 h, day 6)","viability at 10 µM ([4]; SW-620, 192 h, day 8)","viability at 160 µM ([4]; SW-620, 192 h, day 8)",IC50 ([1]; 24 h),IC50 ([1]; 48 h),"IC50 ([2]; SW480, 24 h, 24 h)","IC50 ([2]; SW480, 48 h, 48 h)","reduction in viability ([4]; SW620, after two days of treatment, concentrations higher than 10 µM)"
COc1cc(/C=C/C(=O)CC(=O)/C=C/c2ccc(O)c(OC)c2)ccc1O [Curcumin],–,0.12,1.63,0.24,0.40,–,–,–,–,–,–,–,–,–,–,–,–,–,–,–
"COc1cc(/C=C/C(=O)c2ccc(/C=C/c3ccc(O)cc3)cc2)ccc1O [Hybrid 3a, (E)-3-(4-Hydroxy-3-methoxyphenyl)-1-(4-((E)-4-hydroxystyryl)phenyl)prop-2-en-1-one]",119 to 120 °C,0.74,–,1.28,0.54,122 ± 15.5 µM,51.6 ± 10.5 µM,71.9 ± 1.9%,16.1%,10.7 ± 4.7%,0%,2.5 ± 0.5%,0%,0.2 ± 0.3%,0%,166 ± 11.8 µM,20.2 ± 1.21 µM,96 ± 2.76 µM,95.1 ± 7.02 µM,–
"COc1ccc(/C=C/c2ccc(C(=O)/C=C/c3ccc(O)c(OC)c3)cc2)cc1 [Hybrid 3b, (E)-3-(4-hydroxy-3-methoxyphenyl)-1-(4-((E)-4-methoxystyryl)phenyl)prop-2-en-1-one]",187 to 190 °C,–,–,–,–,–,–,–,–,–,–,–,–,–,–,–,–,–,–,–
"COc1cc(/C=C/C(=O)c2ccc(/C=C/c3ccc([N+](=O)[O-])cc3)cc2)ccc1O [Hybrid 3c, (E)-3-(4-hydroxy-3-methoxyphenyl)-1-(4-((E)-4-nitrostyryl)phenyl)prop-2-en-1-one]",227 to 230 °C,–,–,>100,>15,> 3000 µM,> 3000 µM,–,–,–,–,–,–,–,–,> 3000 µM,> 3000 µM,27.5 ± 2 µM,> 200 µM,–
"COc1cc(/C=C/C(=O)c2ccc(/C=C/c3cccc(OC)c3OC)cc2)ccc1O [Hybrid 3d, (E)-1-(4-((E)-2,3-Dimethoxystyryl)phenyl)-3-(4-hydroxy-3-methoxyphenyl)prop-2-en-1-one]",63 to 65 °C,0.44,0.48,0.91,0.49,31 ± 2.93 µM,12.4 ± 3.41 µM,–,–,–,–,–,–,–,–,70.5 ± 3.8 µM,26.1 ± 4.24 µM,34.1 ± 3.92 µM,25.2 ± 3.54 µM,–
"COc1ccc(OC)c(/C=C/c2ccc(C(=O)/C=C/c3ccc(O)c(OC)c3)cc2)c1 [Hybrid 3f, (E)-1-(4-((E)-2,5-Dimethoxystyryl)phenyl)-3-(4-hydroxy-3-methoxyphenyl)prop-2-en-1-one]",47 to 51 °C,2.36,0.86,1.33,0.27,112 ± 15.8 µM,23.9 ± 4.01 µM,–,–,–,–,–,–,–,–,47.4 ± 10.5 µM,27.6 ± 4.99 µM,84.4 ± 5.45 µM,88.6 ± 1.84 µM,–
"O=c1[nH]cc(F)c(=O)[nH]1 [Hybrid 5-FU, 5-fluorouracil, reference compound]",–,0.59,0.96,0.35,0.99,–,–,–,–,–,–,–,–,–,–,–,–,–,–,–
Oc1ccc(/C=C/c2cc(O)cc(O)c2)cc1 [Resveratrol],–,0.22,0.45,0.77,0.52,118 ± 8.54 µM,64 ± 8.92 µM,–,–,–,–,–,–,–,–,549 ± 38.5 µM,143 ± 4.03 µM,154 ± 10.6 µM,123 ± 4.48 µM,–
